We go through 28 molecules from patent US11377425B1, “Small molecule modulators of IL-17” (LEO Pharma A/S, priority 2018, dated 2022).

This test addresses T1, human IL-17AA (Homo sapiens, UniProt Q16552).
T1 construct: host or cells: HEK (human embryonic kidney) cells
T1 sequence (Q16552 24-155): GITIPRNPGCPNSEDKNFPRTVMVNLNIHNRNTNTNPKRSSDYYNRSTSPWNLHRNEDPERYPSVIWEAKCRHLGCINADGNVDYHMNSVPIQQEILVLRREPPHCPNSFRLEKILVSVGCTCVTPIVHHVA
Put plainly: IL-8 release assay in human epithelial keratinocytes adult (HEKa). Type of test: cell-based. The following applies: HEKa cells, 3 ng/mL HEK-human IL-17AA + 10 ng/mL human TNFalpha; read-out: Rel EC50 IL-8 release assay. The gist of the method: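 Adult human epidermal keratinocytes stimulated 68-72 h at 37 °C with 3 ng/mL HEK-derived human IL-17AA plus 10 ng/mL TNF-alpha (final) in the presence of compound; TNF-alpha alone defines 100% inhibition. Secreted IL-8 measured by HTRF as percent of controls; relative IC50/Emax from four-parameter fit (r^2>0.9), cytotoxicity by PrestoBlue.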
As a reminder, the EC50 is the midpoint of the concentration-response curve. As for `Cc1n[nH]c(C)c1-c1ccc(NC(=O)[C@@H](NC(=O)c2ccnn2CC(C)(F)F)C(C2CC2)C2CC2)cc1` [Example 186, N-[(1S)-1-(dicyclopropylmethyl)-2-[4-(3,5-dimethyl-1H-pyrazol-4-yl)anilino]-2-oxo-ethyl]-2-(2,2-difluoropropyl)pyrazole-3-carboxamide], the 50% effective concentration (EC50) was less than 100 nM.

As for `Cc1n[nH]c(C)c1-c1ccc(NC(=O)[C@@H](NC(=O)c2ccnn2C(C)C(F)F)C(C2CC2)C2CC2)cc1` (stereo partly drawn) [Example 189, N-[(1S)-1-(dicyclopropylmethyl)-2-[4-(3,5-dimethyl-1H-pyrazol-4-yl)anilino]-2-oxo-ethyl]-2-(2,2-difluoro-1-methyl-ethyl)pyrazole-3-carboxamide], the concentration for a half-maximal effect (EC50) was less than 100 nM. The result for `Cc1n[nH]c(C)c1-c1ccc(NC(=O)[C@@H](NC(=O)c2ccnn2C)C(C)C(C)C)cc1` (stereo partly shown) [Example 197] reads 100 to 1000 nM; that for `Cc1n[nH]c(C)c1-c1ccc(NC(=O)[C@@H](NC(=O)c2ccn(C)n2)C(C2CC2)C2CC2)cc1` [Example 198, N-[(1S)-1-(dicyclopropylmethyl)-2-[4-(3,5-dimethyl-1H-pyrazol-4-yl)anilino]-2-oxo-ethyl]-1-methyl-pyrazole-3-carboxamide], greater than 1000 nM. In the case of `CCn1ccc(C(=O)N[C@H](C(=O)Nc2ccc(-c3c(C)n[nH]c3C)cc2)C(C2CC2)C2CC2)n1` [Example 199, N-[(1S)-1-(dicyclopropylmethyl)-2-[4-(3,5-dimethyl-1H-pyrazol-4-yl)anilino]-2-oxo-ethyl]-1-ethyl-pyrazole-3-carboxamide], the concentration for a half-maximal effect (EC50) is greater than 1000 nM. As to `Cc1n[nH]c(C)c1-c1ccc(NC(=O)[C@@H](NC(=O)c2ccnn2C(C)C)C2C3CC4CC(C3)CC2C4)cc1` (stereo partly drawn) [Example 200, N-[(1S)-1-(2-adamantyl)-2-[4-(3,5-dimethyl-1H-pyrazol-4-yl)anilino]-2-oxo-ethyl]-2-isopropyl-pyrazole-3-carboxamide], the EC50 was less than 100 nM. The result for `CCn1nccc1C(=O)N[C@H](C(=O)Nc1ccc(-c2c(C)n[nH]c2C)cc1)C1C2CC3CC(C2)CC1C3` (stereo partly drawn) [Example 201, N-[(1S)-1-(2-adamantyl)-2-[4-(3,5-dimethyl-1H-pyrazol-4-yl)anilino]-2-oxo-ethyl]-2-ethyl-pyrazole-3-carboxamide] reads less than 100 nM. Regarding `Cc1n[nH]c(C)c1-c1ccc(NC(=O)[C@@H](NC(=O)c2ccnn2C)C2C3CC4CC(C3)CC2C4)cc1` (stereo partly drawn) [Example 202, N-[(1S)-1-(2-adamantyl)-2-[4-(3,5-dimethyl-1H-pyrazol-4-yl)anilino]-2-oxo-ethyl]-2-methyl-pyrazole-3-carboxamide], the EC50 was less than 100 nM. For the molecule `Cc1n[nH]c(C)c1-c1ccc(NC(=O)[C@@H](NC(=O)c2ccnn2CCC(C)O)[C@H]2CC[C@H](C)CC2)cc1` (stereo partly drawn) [Example 203, N-[(1S)-2-[4-(3,5-dimethyl-1H-pyrazol-4-yl)anilino]-1-(trans-4-methylcyclohexyl)-2-oxo-ethyl]-2-(3-hydroxybutyl)pyrazole-3-carboxamide], the half-maximal effective concentration (EC50) was less than 100 nM. On to `COCCn1nccc1C(=O)N[C@H](C(=O)Nc1ccc(-c2c(C)n[nH]c2C)cc1)C(C1CC1)C1CC1` [Example 206, N-[(1S)-1-(dicyclopropylmethyl)-2-[4-(3,5-dimethyl-1H-pyrazol-4-yl)anilino]-2-oxo-ethyl]-2-(2-methoxyethyl)pyrazole-3-carboxamide], for which the EC50 is less than 100 nM. With `Cc1n[nH]c(C)c1-c1ccc(NC(=O)[C@@H](NC(=O)c2ccnn2CC#N)C(C2CC2)C2CC2)cc1` [Example 207, 2-(cyanomethyl)-N-[(1S)-1-(dicyclopropylmethyl)-2-[4-(3,5-dimethyl-1H-pyrazol-4-yl)anilino]-2-oxo-ethyl]pyrazole-3-carboxamide], the EC50 lay within 100 to 1000 nM. For `Cc1n[nH]c(C)c1-c1ccc(NC(=O)[C@@H](NC(=O)c2ccnn2CCCO)[C@H]2CC[C@H](C)CC2)cc1` [Example 208, N-[(1S)-2-[4-(3,5-dimethyl-1H-pyrazol-4-yl)anilino]-1-(trans-4-methylcyclohexyl)-2-oxo-ethyl]-2-(3-hydroxypropyl)pyrazole-3-carboxamide] the value was less than 100 nM; for `Cc1n[nH]c(C)c1-c1ccc(NC(=O)[C@@H](NC(=O)c2ccnn2CCCO)[C@@H]2CC(C)(C)CCC2(F)F)cc1` [Example 209, N-[(1S)-1-[(1S)-2,2-difluoro-5,5-dimethyl-cyclohexyl]-2-[4-(3,5-dimethyl-1H-pyrazol-4-yl)anilino]-2-oxo-ethyl]-2-(3-hydroxypropyl)pyrazole-3-carboxamide], less than 100 nM.

With `Cc1n[nH]c(C)c1-c1ccc(NC(=O)[C@@H](NC(=O)c2ccnn2C(C)C)[C@@H]2CC(C)(C)CCC2(F)F)cc1` [Example 212, N-[(1S)-1-[(1S)-2,2-difluoro-5,5-dimethyl-cyclohexyl]-2-[4-(3,5-dimethyl-1H-pyrazol-4-yl)anilino]-2-oxo-ethyl]-2-isopropyl-pyrazole-3-carboxamide], the EC50 is less than 100 nM. As for `CCn1nccc1C(=O)N[C@H](C(=O)Nc1ccc(-c2c(C)n[nH]c2C)cc1)[C@@H]1CC(C)(C)CCC1(F)F` [Example 213, N-[(1S)-1-[(1S)-2,2-difluoro-5,5-dimethyl-cyclohexyl]-2-[4-(3,5-dimethyl-1H-pyrazol-4-yl)anilino]-2-oxo-ethyl]-2-ethyl-pyrazole-3-carboxamide], the concentration giving a half-maximal response (EC50) was less than 100 nM. On to `Cc1n[nH]c(C)c1-c1ccc(NC(=O)[C@@H](NC(=O)c2ccnn2C)[C@@H]2CC(C)(C)CCC2(F)F)cc1` [Example 214, N-[(1S)-1-[(1S)-2,2-difluoro-5,5-dimethyl-cyclohexyl]-2-[4-(3,5-dimethyl-1H-pyrazol-4-yl)anilino]-2-oxo-ethyl]-2-methyl-pyrazole-3-carboxamide], for which the EC50 is less than 100 nM.

As for `Cc1n[nH]c(C)c1-c1ccc(NC(=O)[C@@H](NC(=O)c2ccnn2CCC(F)F)C(C2CC2)C2CC2)cc1` [Example 215, N-[(1S)-1-(dicyclopropylmethyl)-2-[4-(3,5-dimethyl-1H-pyrazol-4-yl)anilino]-2-oxo-ethyl]-2-(3,3-difluoropropyl)pyrazole-3-carboxamide], the EC50 was less than 100 nM. Regarding `Cc1n[nH]c(C)c1-c1ccc(NC(=O)[C@@H](NC(=O)c2ccn[nH]2)C(C2CC2)C2CC2)cc1` [Example 216, N-[(1S)-1-(dicyclopropylmethyl)-2-[4-(3,5-dimethyl-1H-pyrazol-4-yl)anilino]-2-oxo-ethyl]-1H-pyrazole-5-carboxamide], the concentration for a half-maximal effect (EC50) was 100 to 1000 nM.

For `Cc1n[nH]c(C)c1-c1ccc(NC(=O)[C@@H](NC(=O)c2ccnn2C(CF)CF)C(C2CC2)C2CC2)cc1` [Example 217], the concentration for a half-maximal effect (EC50) is less than 100 nM. The result for `Cc1n[nH]c(C)c1-c1ccc(NC(=O)[C@@H](NC(=O)c2ccnn2C(C)CF)C(C2CC2)C2CC2)cc1` (stereo partly drawn) [Example 218, N-[(1S)-1-(dicyclopropylmethyl)-2-[4-(3,5-dimethyl-1H-pyrazol-4-yl)anilino]-2-oxo-ethyl]-2-(2-fluoro-methyl-ethyl)pyrazole-3-carboxamide] reads less than 100 nM; that for `Cc1n[nH]c(C)c1-c1ccc(NC(=O)[C@@H](NC(=O)c2ccnn2C2CCOC2)C(C2CC2)C2CC2)cc1` (stereo partly drawn) [Example 219, N-[(1S)-1-(dicyclopropylmethyl)-2-[4-(3,5-dimethyl-1H-pyrazol-4-yl)anilino]-2-oxo-ethyl]-2-tetrahydrofuran-3-yl-pyrazole-3-carboxamide], less than 100 nM. The result for `Cc1n[nH]c(C)c1-c1ccc(NC(=O)[C@@H](NC(=O)c2ccnn2C)C(C)C2CCCCC2)cc1` (stereo partly drawn) [Example 220, N-[(1S)-2-cyclohexyl-1-[[4-(3,5-dimethyl-1H-pyrazol-4-yl)phenyl]carbamoyl]propyl]-2-methyl-pyrazole-3-carboxamide] reads less than 100 nM; that for `Cc1n[nH]c(C)c1-c1ccc(NC(=O)[C@@H](NC(=O)c2ccnn2C(C)C2CC2)C(C2CC2)C2CC2)cc1` (stereo partly drawn) [Example 222, 2-(1-cyclopropylethyl)-N-[(1S)-1-(dicyclopropylmethyl)-2-[4-(3,5-dimethyl-1H-pyrazol-4-yl)anilino]-2-oxo-ethyl]pyrazole-3-carboxamide], less than 100 nM; that for `Cc1n[nH]c(C)c1-c1ccc(NC(=O)[C@H](CC2CCC2)NC(=O)c2ccnn2C)cc1` [Example 229, N-[(1S)-1-(cyclobutylmethyl)-2-[4-(3,5-dimethyl-1H-pyrazol-4-yl)anilino]-2-oxo-ethyl]-2-methyl-pyrazole-3-carboxamide], greater than 1000 nM. `Cc1n[nH]c(C)c1-c1ccc(NC(=O)[C@@H](NC(=O)c2ccnn2C)C2CCCCC2(C)C)cc1` (stereo partly drawn) [Example 230, N-[(1S)-1-(2,2-dimethylcyclohexyl)-2-[4-(3,5-dimethyl-1H-pyrazol-4-yl)anilino]-2-oxo-ethyl]-2-methyl-pyrazole-3-carboxamide]: the concentration giving a half-maximal response (EC50) was less than 100 nM.

For `Cc1n[nH]c(C)c1-c1ccc(NC(=O)[C@@H](NC(=O)c2ccnn2C)C2CCCC2(C)C)cc1` (stereo partly drawn) [Example 231, N-[(1S)-1-(2,2-dimethylcyclopentyl)-2-[4-(3,5-dimethyl-1H-pyrazol-4-yl)anilino]-2-oxo-ethyl]-2-methyl-pyrazole-3-carboxamide], the EC50 was less than 100 nM. Consider `Cc1n[nH]c(C)c1-c1ccc(NC(=O)C(NC(=O)c2ccnn2C)C2CC3CC3C2)cc1` [Example 233, N-[(1S)-1-[(1R,55)-3-bicyclo[3.1.0]2-[4-(3,5-dimethyl-1H-pyrazol-4-yl)anilino]-2-oxo-ethyl]-2-methyl-pyrazole-3-carboxamide], for which the 50% effective concentration (EC50) fell in the range of 100 to 1000 nM. As to `Cc1n[nH]c(C)c1-c1ccc(NC(=O)[C@@H](NC(=O)c2ccnn2C)C2CCC(C)(C)CC2)cc1` [Example 238, N-[(1S)-1-(4,4-dimethylcyclohexyl)-2-[4-(3,5-dimethyl-1H-pyrazol-4-yl)anilino]-2-oxo-ethyl]-2-methyl-pyrazole-3-carboxamide], the EC50 is 100 to 1000 nM.
